Tests used:
C1 dorsal horn cells = assay: Annexin fluorescence histochemistry after ibotenic acid pledget on C1-C2 spinal segments; type: in vivo, rats; details: pledget on C1-C2 for 2 hrs, after 14-16 hrs
From the text: After 14-16 hrs, rats were perfused with fixative and the medulla, C1-2, C3-5 segments were processed for annexin fluorescence histochemistry. Photomicrographs are from the C1 dorsal horn and the gray matter is outlined. […] White arrows point to unlabeled (black) cells in the dorsal horn. […] Annexin binding indicates cells with energy impairment and/or undergoing apotosis. Annexin belongs to a family of proteins that bind acidic phospholipids, particularly phosphotidylserine (PS). PS is assymetically distributed in the cell membrane by the enzyme, aminophospholipid translocase. Following energy impairment, PS distributes to the outer cell leaflet and annexin binding illustrates cells with PS on the outside of the cell.
Chemical disruption of the C1-C2 spinal neurons alters the effects of stimulation of the cardiac afferent input on the regulation of information processing in the cervical and thoracic spinal cord. In order to produce chemical disruption of cells, ibotenic acid was chosen because it is an excitotoxin that has been used effectively in previous studies. Ibotenic acid is a structurally rigid glutamate analog that destroys neuronal perikarya, but spares axons and non-neuronal cells. After ibotenic acid is injected into a nucleus or applied to the surface of the spinal cord, the cells in the region are initially excited and then enter a phase of depolarization block. […]

C1-C2 spinal neurons = assay: Vagal inhibition of T3 neuron after ibotenic acid on dorsal C1-C2 spinal cord; type: in vivo; details: approximately 20 min after ibotenic acid was placed on the spinal cord
From the text: FIGS. […] Electrical stimulation of the left cervical vagus (A: LCVS; {30 V, 0.1 ms} ipsilateral to the cell) right cervical vagus (B; RCVS; contralateral) at different frequencies. Vagal stimulation reduced the discharge rate of the evoked response to noxious stimulation of the cardiac afferents intrapericardial injections of bradykinin (C). IA; ibotenic acid. The short horizontal bars represent the period of vagal stimulation, the long horizontal bar represents the bradykinin injection and the numbers indicate the frequencies tested.
Chemical disruption of the C1-C2 spinal neurons alters the effects of stimulation of the cardiac afferent input on the regulation of information processing in the cervical and thoracic spinal cord. In order to produce chemical disruption of cells, ibotenic acid was chosen because it is an excitotoxin that has been used effectively in previous studies. Ibotenic acid is a structurally rigid glutamate analog that destroys neuronal perikarya, but spares axons and non-neuronal cells. After ibotenic acid is injected into a nucleus or applied to the surface of the spinal cord, the cells in the region are initially excited and then enter a phase of depolarization block. […] The advantage of this methodology is that the neuronal relays in the C1-C2 segments can be disrupted without interrupting the axons that pass through this region. […]

N[C@H](C(=O)O)c1cc(=O)[nH]o1 [ibotenic acid]
annexin staining of cells (C1 dorsal horn cells): many annexin positive
inhibitory effects to vagal stimulation (C1-C2 spinal neurons): eliminated

— patent US9072901B2, “Cardiac neuromodulation and methods of using same” (The Board of Regents of the University of Oklahoma, priority 2001, dated 2015)
